Results on 8 compounds are retold here after patent US6056965A, “2-mercapto-imidazole derivatives substituted in position 4 (or 5) as antioxidizing agents, method of preparation and applications in the pharmaceutical, cosmetic or food industries” (Oxis Isle of Man, Limited, priority 1993, dated 2000).

In assay [1] the test system is erythrocytic glutathione peroxidase. The assay is described as follows: Prevention of the inactivation of glutathione peroxidase by hypochlorous acid. Format: biochemical, bovine. As to conditions: 25 μM test molecule + 10 μM hypochlorous acid, 2 minutes at 37° C.; 100% = no hypochlorous acid and no test molecule. As to the method:
In a 50 mM potassium phosphate buffer of pH 7.0 containing 0.1 mM DTPA, a quantity of erythrocytic glutathione peroxidase of bovine origin is incubated for 2 minutes at 37° C., at a final concentration of 1.5 U/ml, in the presence of 10 μM hypochlorous acid and in the presence or absence of a molecule described in the present invention (at 25 μM).
After incubation for 2 minutes, 100 μl of this reaction medium are then added to 1.5 ml of 50 mM Tris buffer of pH 7.6 (at 37° C.) containing 0.1 mM DTPA, 0.165 mM β-NADPH, 2.2 mM reduced glutathione and 1.1 U/ml of glutathione disulfide reductase.
Then, after the addition of 50 μl of 6.6 mM t-butyl hydroperoxide, the glutathione peroxidase activity is determined at 37° C. by measuring the decrease in absorbance at 340 nm for 2 minutes.
They are expressed as a percentage of the glutathione peroxidase activity determined under the same experimental conditions in the absence of hypochlorous acid and the test molecule.

The test system of assay [2] is glucose-6-phosphate dehydrogenase. The assay is described as follows: Prevention of the inactivation of glucose-6-phosphate dehydrogenase by the system Cu(II)/ascorbate/O2. The assay is classed as biochemical, Leuconostoc mesenteroides. As to conditions: 25 μM test molecule + 4.5 μM Cu(2+) + 360 μM ascorbate, 5 minutes at 37° C.; 100% = no system and no test molecule. How it is done: In a 50 mM potassium phosphate buffer of pH 7.0, a quantity of glucose-6-phosphate dehydrogenase (purified from Leuconostoc mesenteroides) is incubated for 5 minutes at 37° C., at a final concentration of 1.2 U/ml, in the presence of 4.5 μM copper sulfate and 360 μM ascorbate and in the presence or absence of a molecule described in the present invention (at 25 μM). After incubation for 5 minutes, 20 μl of this reaction medium are then added to 980 μl of 50 mM Tris buffer of pH 7.5 (at 37° C.) containing 0.380 mM β-NADP^+, 3.3 mM glucose-6-phosphate and 6.3 mM magnesium chloride. The glucose-6-phosphate dehydrogenase activity is then determined at 37° C. by measuring, the increase in absorbance at 340 nm for 7 minutes. They are expressed as a percentage of the glucose-6-phosphate dehydrogenase activity determined under the same experimental conditions in the absence of the system Cu(II)/ascorbate/O2 and the test molecule.

A further assay concerns double-stranded DNA. The assay is described as follows: Prevention of the degradation of DNA by the system Fe(II)-citrate/H2O2/ascorbate. The assay is classed as biochemical, phage lambda. As to conditions: 25 μM test molecule (table) + 20 μM Fe(2+)-citrate, 200 μM ascorbate, 200 μM H2O2, 1 hour at 37° C. How it is done: After this incubation for one hour, 220 U/ml of catalase are then added to the reaction medium and the integrity of the DNA is measured by spectrofluorimetry after the addition of 10 μl of a 5 mM solution of ethidium bromide to the reaction medium (excitation wavelength: 510 nm; emission wavelength: 590 nm).
The effect of the test molecule is measured by determining the percentage of intact DNA, the value of 100% being determined under the same experimental conditions in the absence of the system Fe(II)-citrate/H2 O2 /ascorbate and the test molecule.

In assay [3] the test system is isolated and perfused rat heart. The assay is described as follows: Inhibition of cardiac necrosis induced by ischemia-reperfusion, perfused isolated heart (Example 16). The note with it: 2 μM in perfusion medium 12 minutes prior to ischemia and during reperfusion. How it is done:
Male Sprague-Dawley rats weighing between 250 and 350 grams are injected intraperitoneally with a solution of sodium heparinate (40 units/100 g). The rats are anesthetized with ether 30 minutes later. The heart is then quickly removed and perfused by Langendorff's method (see 0. LANGENDORFF: Pflugers Arch. Physiol. Mensch. Tiere; (1895); 61; page 291) with electrical stimulation at a frequency of 300/min. The perfusion solution, equilibrated with 95% of oxygen and 5% of carbon dioxide, consists of a modified Krebs-Henseleit buffer (pH 7.4) of the following composition: NaCl118 mM, KCl 4.7 mM, MgSO4 1.2 mM, CaCl2 1 mM, KH2 PO4 1.2 mM, NaHCO3 25 mM and glucose 11 mM. The whole set-up is thermostatically controlled at 37° C.
The functional state of the heart is monitored by measurement of the following hemodynamic parameters: heart rate, systolic and telediastolic ventricular pressures (the difference between these expressing the developed pressure) and minimal and maximal slopes of the pressure variations as a function of time. […]
In addition, the alteration of the myocardial tissue is evaluated by determining the concentration, in the perfusate, of two cytosolic enzymes released into the perfusion medium, namely creatine phosphokinase (CPK) and lactate dehydrogenase (LDH). […]

In assay [4] the test system is isolated rat heart. The assay is described as follows: Recovery of the developed pressure of a heart subjected to ischemia-reperfusion (Example 18). The note with it: 10 μM BXT 52051 or 2 μM BXT 52052; 12 minutes prior to ischemia and during reperfusion; FIG. 4. How it is done:
In the same experimental model as that described in Example 17, the study of BXT 52051 and BXT 52052 is carried out by perfusing the heart with the perfusion medium containing 10 μM BXT 52051 or 2 μM BXT 52052 for 12 minutes prior to the period of ischemia, as well as during the reperfusion. The degradation of the cardiac function is evaluated from the measurement of hemodynamic parameters (systolic and telediastolic ventricular pressures) by determining over time the percentage recovery of the developed pressure (difference between systolic and telediastolic pressure) during the reperfusion, compared to that recorded just before the period of ischemia (stabilized developed pressure).

For assay [5] the following is noted: physiological conditions (concentrations and pH); cited from earlier work.
Assay [6] has as its system ferryl forms of the hemoproteins. The note with it: physiological pH; produced in the presence of H2O2; cited from earlier work.
For assay [7] the following is noted: quenching excited states of photosensitizers such as rose bengal; cited from earlier work.
The conditions of assay [8]: pulsed radiolysis or Fenton reaction; cited from earlier work.
The next assay relates to oxyhemoglobin. The note with it: micromolar concentrations; sodium nitrite; in vitro; cited from earlier work.
The conditions of assay [9]: in the presence of metal salts (Fe^++); cited from earlier work.
The conditions of assay [10]: physiological conditions (concentrations and pH); cited from earlier work. The source holds these as a separate data set.
The test system of assay [11] is isolated rat heart. The note with it: 100 μmolar; after 15 min of ischemia; cited from earlier work.
Assay [12] concerns isolated and perfused rat heart. The assay is described as follows: Inhibition of cardiac necrosis induced by ischemia-reperfusion, modified perfusion solution (Example 17). As to conditions: 20 μM BXT 52053, 600 μM albumin (BSA) or 100 μM L-ergothioneine; 12 minutes before ischemia and first 30 minutes of reperfusion; FIG. 3. As to the method: In the same experimental model as that described in Example 16, the composition of the perfusion solution was modified such that it contains 2.5 mM CaCl2 and 2.4 mM MgCl2) (all else being moreover equal). The effect of BXT 52053 is then compared to that of albumin and L-ergothioneine.
This study is carried out by perfusing the heart with the perfusion solution containing 20 μM BXT 52053, or 600 μM albumin (BSA), or 100 μM L-ergothioneine, during the 12 minutes preceding the period of ischemia, then during the first 30 minutes of post-ischemic reperfusion.
The degradation of the myocardial tissue due to the ischemia and/or reperfusion is evaluated by determining the total quantity of creatine phosphokinase (CPK) released into the perfusate during the period of reperfusion. The results are expressed in milliunits of enzyme activity per milligram of heart and per minute.

For `O=C(O)CCc1c[nH]c(=S)[nH]1` [BXT 52020, 3-(2'-mercaptoimidazol-4'-yl)propanoic acid], the “% glutathione peroxidase activity” value in [1] stood at 94.8%. For the same compound, the “% glucose-6-phosphate dehydrogenase activity” value in assay [2] came to 92.3%. Besides, in the assay on double-stranded DNA, the “% intact DNA” value stood at 76.2%.
For `CCOC(=O)CCc1c[nH]c(=S)[nH]1` [BXT 52021, ethyl 3-(2'-mercaptoimidazol-4'-yl)propanoate], the “% glutathione peroxidase activity” value in assay [1] was 94.7%. Also, in [2], the “% glucose-6-phosphate dehydrogenase activity” value stood at 93.7%. The “systolic pressure of heart subjected to ischemia-reperfusion” value in assay [3] is “maintained”. Besides, in the assay with double-stranded DNA, the “% intact DNA” value was determined as 78.0%.
In the case of `NCCc1c[nH]c(=S)[nH]1` [BXT 52022, 2-(2'-mercaptoimidazol-4'-yl)ethylamine], the “% glutathione peroxidase activity” value in assay [1] was found to be 94.4%. In addition, the “% glucose-6-phosphate dehydrogenase activity” value in [2] is given as 94.4%. Moreover, in the assay on double-stranded DNA, the “% intact DNA” value came to 80.2%.
On to `NC(=O)CCc1c[nH]c(=S)[nH]1` [BXT 52029, 3-(2'-mercaptoimidazol-4'-yl)propanamide], for which, in [1], the “% glutathione peroxidase activity” value was 93.2%. Besides, the “% glucose-6-phosphate dehydrogenase activity” value in assay [2] was 92.3%. Also, the “% intact DNA” value in the assay with double-stranded DNA is recorded as 78.0%.
For `CN(C)[C@@H](Cc1c[nH]c(=S)[nH]1)C(=O)O` [BXT 52040, 2'-mercapto-Nα,Nα-dimethyl-L-(+)-histidine], the “% glutathione peroxidase activity” value in [1] was 99.1%. Besides, in assay [2], the “% glucose-6-phosphate dehydrogenase activity” value turned out to be 104.6%. Besides, in the assay on double-stranded DNA, the “% intact DNA” value amounted to 75.3%.
Turning to `C[N+](C)(C)CC(CC(=O)[O-])OC(=O)CCc1c[nH]c(S)n1` (stereo not drawn) [BXT 52052, carnitine 3-(2'-mercaptoimidazol-4'-yl)propanoate], the “recovery of the ventricular developed pressure during reperfusion” value with isolated rat heart [4] is “recovered much more rapidly and reaches a higher value”.
Consider `C[N+](C)(C)[C@@H](Cc1c[nH]c(=S)[nH]1)C(=O)[O-]` [L-ergothioneine, L-(+)-Ergothioneine], for which, in [5], the “reaction with superoxide anion” value was “reacts neither”. Besides, in assay [6], the “reduction of ferryl forms of hemoproteins” value is given as “reduces the ferryl forms of the hemoproteins”. Moreover, the “photoproduction of singlet oxygen” value in assay [7] is on record as “inhibits the photoproduction of singlet oxygen”. For the same compound, the “reaction with OH radicals” value in [8] is listed as “kinetics close to the maximum rate of diffusion”. In the assay with oxyhemoglobin, the “inhibition of methemoglobin formation” value is listed as “effectively inhibit the formation of methemoglobin”. For the same compound, the “stimulation of peroxidation of polyunsaturated fatty acids” value in assay [9] was “does not stimulate the peroxidation of polyunsaturated fatty acids”. Further, in assay [10], the “reaction with hydrogen peroxide” value is on record as “reacts neither”. Further, the “extent of cell necrosis (lactate dehydrogenase activity of the effluent)” value in the assay with isolated rat heart [11] is given as “limits the extent of cell necrosis”. Also, in assay [12], the “total quantity of CPK released into the perfusate during 30 minutes of reperfusion” value was “no significant effect”.
Turning to “albumin: albumin (BSA), comparison agent in the perfusion solution”, in [12], the “total quantity of CPK released into the perfusate during 30 minutes of reperfusion” value is listed as “no significant effect”.
